From ChEMBL document CHEMBL4507284, “Data for DCP probe BI-1230” (2021)
Active and inactive are the calls of the source. No cut-off for these calls is given here.

What was measured:
[1] = target: Muscarinic acetylcholine receptor M4 (Homo sapiens) (UniProt P08173); conditions: Compound concentration 10.0 uM
[2] = target: Cyclin-dependent kinase 15 (Homo sapiens) (UniProt Q96Q40); conditions: Compound concentration 1000.0 nM
[3] = target: Serine/threonine-protein kinase tousled-like 2 (Homo sapiens) (UniProt Q86UE8); conditions: Compound concentration 1000.0 nM
[4] = target: Mitogen-activated protein kinase 10 (Homo sapiens) (UniProt P53779); conditions: Compound concentration 1000.0 nM
[5] = target: D(1A) dopamine receptor (Homo sapiens) (UniProt P21728); conditions: Compound concentration 10.0 uM
[6] = target: Cytoplasmic tyrosine-protein kinase BMX (Homo sapiens) (UniProt P51813); conditions: Compound concentration 1000.0 nM
[7] = target: Mitogen-activated protein kinase kinase kinase kinase 1 (Homo sapiens) (UniProt Q92918); conditions: Compound concentration 1000.0 nM
[8] = target: Protein-tyrosine kinase 2-beta (Homo sapiens) (UniProt Q14289); conditions: Compound concentration 1000.0 nM
[9] = target: BDNF/NT-3 growth factors receptor (Homo sapiens) (UniProt Q16620); conditions: Compound concentration 1000.0 nM
[10] = target: Muscarinic acetylcholine receptor M3 (Homo sapiens) (UniProt P20309); conditions: Compound concentration 10.0 uM
[11] = target: Cyclin-dependent kinase 13 (Homo sapiens) (UniProt Q14004); conditions: Compound concentration 1000.0 nM
[12] = target: Testis-specific serine/threonine-protein kinase 3 (Homo sapiens) (UniProt Q96PN8); conditions: Compound concentration 1000.0 nM
Chain of Testis-specific serine/threonine-protein kinase 3 (Homo sapiens) (Q96PN8 whole entry): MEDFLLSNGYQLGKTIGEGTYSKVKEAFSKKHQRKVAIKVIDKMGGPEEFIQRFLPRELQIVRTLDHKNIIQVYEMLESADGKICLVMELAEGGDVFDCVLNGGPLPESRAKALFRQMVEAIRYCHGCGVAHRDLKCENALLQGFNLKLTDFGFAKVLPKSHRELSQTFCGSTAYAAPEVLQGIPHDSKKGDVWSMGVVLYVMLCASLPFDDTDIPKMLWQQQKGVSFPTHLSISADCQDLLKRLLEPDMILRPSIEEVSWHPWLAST

[13] = target: Interleukin-1 receptor-associated kinase 3 (Homo sapiens) (UniProt Q9Y616); conditions: Compound concentration 1000.0 nM
[14] = target: Mitogen-activated protein kinase kinase kinase 20 (Homo sapiens) (UniProt Q9NYL2); conditions: Compound concentration 1000.0 nM
Chain of Mitogen-activated protein kinase kinase kinase 20 (Homo sapiens) (Q9NYL2 2-800 limits assumed): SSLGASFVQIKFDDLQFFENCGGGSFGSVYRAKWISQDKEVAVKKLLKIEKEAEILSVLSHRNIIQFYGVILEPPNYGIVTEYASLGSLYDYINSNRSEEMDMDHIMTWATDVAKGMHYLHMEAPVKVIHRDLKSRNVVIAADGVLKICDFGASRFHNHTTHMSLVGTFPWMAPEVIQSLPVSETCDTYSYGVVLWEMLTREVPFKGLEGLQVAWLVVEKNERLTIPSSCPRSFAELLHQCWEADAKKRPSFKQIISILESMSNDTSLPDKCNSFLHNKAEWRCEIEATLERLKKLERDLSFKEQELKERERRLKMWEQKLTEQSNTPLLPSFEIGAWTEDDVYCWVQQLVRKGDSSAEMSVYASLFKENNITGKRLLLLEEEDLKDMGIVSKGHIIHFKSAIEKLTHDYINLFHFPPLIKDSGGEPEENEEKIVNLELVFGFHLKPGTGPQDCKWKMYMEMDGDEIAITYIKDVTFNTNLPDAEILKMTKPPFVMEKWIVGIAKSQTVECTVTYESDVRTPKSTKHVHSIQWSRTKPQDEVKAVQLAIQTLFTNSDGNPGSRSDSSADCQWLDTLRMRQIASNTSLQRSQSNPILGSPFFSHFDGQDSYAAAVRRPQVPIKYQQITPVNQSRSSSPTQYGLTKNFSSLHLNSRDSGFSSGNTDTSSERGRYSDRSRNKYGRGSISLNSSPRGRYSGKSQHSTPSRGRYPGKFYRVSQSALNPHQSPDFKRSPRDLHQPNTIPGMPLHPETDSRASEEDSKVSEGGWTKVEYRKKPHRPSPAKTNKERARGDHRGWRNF

[15] = test system: Hepatocyte growth factor receptor (Homo sapiens), P08581 [M1250T]; conditions: Compound concentration 1000.0 nM
[16] = target: Casein kinase I isoform gamma-2 (Homo sapiens) (UniProt P78368); conditions: Compound concentration 1000.0 nM
[17] = target: Mitogen-activated protein kinase 12 (Homo sapiens) (UniProt P53778); conditions: Compound concentration 1000.0 nM
Chain of Mitogen-activated protein kinase 12 (Homo sapiens) (P53778 whole entry): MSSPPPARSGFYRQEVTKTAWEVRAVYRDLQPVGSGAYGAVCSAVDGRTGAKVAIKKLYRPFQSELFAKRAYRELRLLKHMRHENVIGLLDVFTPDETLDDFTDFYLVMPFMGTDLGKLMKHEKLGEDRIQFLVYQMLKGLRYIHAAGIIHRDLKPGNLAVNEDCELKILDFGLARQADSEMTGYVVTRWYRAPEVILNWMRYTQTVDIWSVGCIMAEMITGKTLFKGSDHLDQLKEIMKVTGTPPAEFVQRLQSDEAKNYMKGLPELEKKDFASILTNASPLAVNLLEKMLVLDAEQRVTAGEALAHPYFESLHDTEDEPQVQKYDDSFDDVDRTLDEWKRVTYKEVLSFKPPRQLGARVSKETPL

[18] = target: Serine/threonine-protein kinase 10 (Homo sapiens) (UniProt O94804); conditions: Compound concentration 1000.0 nM
Chain of Serine/threonine-protein kinase 10 (Homo sapiens) (O94804 whole entry, looked up): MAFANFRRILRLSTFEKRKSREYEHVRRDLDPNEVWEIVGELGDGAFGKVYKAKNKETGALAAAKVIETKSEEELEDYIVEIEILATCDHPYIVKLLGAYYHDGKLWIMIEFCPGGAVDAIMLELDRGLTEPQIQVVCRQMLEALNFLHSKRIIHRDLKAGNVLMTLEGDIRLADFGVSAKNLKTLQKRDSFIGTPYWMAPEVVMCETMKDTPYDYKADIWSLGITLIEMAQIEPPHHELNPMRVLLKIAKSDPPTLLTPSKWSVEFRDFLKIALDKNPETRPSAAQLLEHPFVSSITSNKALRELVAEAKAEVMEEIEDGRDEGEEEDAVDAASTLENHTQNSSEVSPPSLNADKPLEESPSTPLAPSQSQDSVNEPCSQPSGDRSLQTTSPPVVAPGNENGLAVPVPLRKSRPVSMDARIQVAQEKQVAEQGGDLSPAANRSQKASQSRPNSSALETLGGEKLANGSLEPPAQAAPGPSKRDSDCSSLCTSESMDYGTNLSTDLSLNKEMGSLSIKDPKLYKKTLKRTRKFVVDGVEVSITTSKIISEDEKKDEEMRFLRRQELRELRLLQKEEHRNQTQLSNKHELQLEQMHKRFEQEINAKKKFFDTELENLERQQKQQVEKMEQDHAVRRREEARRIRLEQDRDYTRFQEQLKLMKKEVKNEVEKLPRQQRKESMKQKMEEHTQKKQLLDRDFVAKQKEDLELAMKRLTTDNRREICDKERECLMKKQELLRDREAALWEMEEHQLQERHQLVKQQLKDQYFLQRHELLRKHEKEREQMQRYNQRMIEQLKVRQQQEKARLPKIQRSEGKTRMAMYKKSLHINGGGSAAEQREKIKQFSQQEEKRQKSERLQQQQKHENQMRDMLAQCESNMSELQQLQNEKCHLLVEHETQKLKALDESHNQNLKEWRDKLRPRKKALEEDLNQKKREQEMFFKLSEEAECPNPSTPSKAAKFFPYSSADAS

NS3 protease = NS3 protease (Hepacivirus C, UniProt C1KIQ2); assay: Enzymatic assay; design: species or system Hepacivirus hominis
[19] = target: D(4) dopamine receptor (Homo sapiens) (UniProt P21917); conditions: Compound concentration 10.0 uM
Chain of D(4) dopamine receptor (Homo sapiens) (P21917 whole entry): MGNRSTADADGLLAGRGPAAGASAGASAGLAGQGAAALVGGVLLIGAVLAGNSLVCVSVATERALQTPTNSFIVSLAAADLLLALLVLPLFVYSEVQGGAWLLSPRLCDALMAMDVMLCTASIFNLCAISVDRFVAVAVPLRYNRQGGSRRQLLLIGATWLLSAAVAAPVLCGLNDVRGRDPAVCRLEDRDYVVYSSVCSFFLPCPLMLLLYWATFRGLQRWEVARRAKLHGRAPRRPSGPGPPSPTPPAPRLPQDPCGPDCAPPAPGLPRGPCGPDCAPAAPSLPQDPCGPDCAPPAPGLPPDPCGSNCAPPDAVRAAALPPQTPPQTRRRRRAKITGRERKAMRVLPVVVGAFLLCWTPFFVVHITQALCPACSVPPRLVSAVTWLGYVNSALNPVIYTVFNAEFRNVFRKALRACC

[20] = target: Serine/threonine-protein kinase 33 (Homo sapiens) (UniProt Q9BYT3); conditions: Compound concentration 1000.0 nM
[21] = target: Ephrin type-A receptor 8 (Homo sapiens) (UniProt P29322); conditions: Compound concentration 1000.0 nM
Chain of Ephrin type-A receptor 8 (Homo sapiens) (P29322 whole entry): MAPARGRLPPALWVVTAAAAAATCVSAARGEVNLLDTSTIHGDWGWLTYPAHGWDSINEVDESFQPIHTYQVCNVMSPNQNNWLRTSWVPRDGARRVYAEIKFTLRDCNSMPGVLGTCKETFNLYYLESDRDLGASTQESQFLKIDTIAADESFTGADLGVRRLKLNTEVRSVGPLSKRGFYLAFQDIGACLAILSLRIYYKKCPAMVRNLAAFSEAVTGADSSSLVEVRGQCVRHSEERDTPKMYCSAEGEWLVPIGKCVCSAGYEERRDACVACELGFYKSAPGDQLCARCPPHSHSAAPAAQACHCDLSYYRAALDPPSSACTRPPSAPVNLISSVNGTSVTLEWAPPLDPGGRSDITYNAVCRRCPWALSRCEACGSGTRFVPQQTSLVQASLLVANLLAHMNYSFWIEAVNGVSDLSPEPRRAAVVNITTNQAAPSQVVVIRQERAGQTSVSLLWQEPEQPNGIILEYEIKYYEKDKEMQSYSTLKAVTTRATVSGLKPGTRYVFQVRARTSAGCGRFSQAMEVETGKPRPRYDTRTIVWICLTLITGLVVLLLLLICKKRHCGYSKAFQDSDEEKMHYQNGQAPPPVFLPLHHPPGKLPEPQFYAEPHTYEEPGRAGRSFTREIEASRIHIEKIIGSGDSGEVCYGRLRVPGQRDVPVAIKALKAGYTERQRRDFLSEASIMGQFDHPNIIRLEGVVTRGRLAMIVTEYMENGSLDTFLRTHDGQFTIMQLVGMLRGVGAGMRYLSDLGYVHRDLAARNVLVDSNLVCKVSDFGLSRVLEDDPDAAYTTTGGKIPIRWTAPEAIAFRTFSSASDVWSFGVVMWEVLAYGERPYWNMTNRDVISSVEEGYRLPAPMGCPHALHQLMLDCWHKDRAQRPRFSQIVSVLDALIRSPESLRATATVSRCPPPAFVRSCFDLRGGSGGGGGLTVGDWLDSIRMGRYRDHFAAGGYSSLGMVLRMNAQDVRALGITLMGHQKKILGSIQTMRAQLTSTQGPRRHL

[22] = target: Rho-associated protein kinase 2 (Homo sapiens) (UniProt O75116); conditions: Compound concentration 1000.0 nM
[23] = target: Serine/threonine-protein kinase Nek11 (Homo sapiens) (UniProt Q8NG66); conditions: Compound concentration 1000.0 nM
[24] = target: Cyclin-dependent kinase-like 1 (Homo sapiens) (UniProt Q00532); conditions: Compound concentration 1000.0 nM
[25] = target: Serine/threonine-protein kinase pim-1 (Homo sapiens) (UniProt P11309); conditions: Compound concentration 1000.0 nM
[26] = target: NUAK family SNF1-like kinase 2 (Homo sapiens) (UniProt Q9H093); conditions: Compound concentration 1000.0 nM
[27] = target: Tyrosine-protein kinase Yes (Homo sapiens) (UniProt P07947); conditions: Compound concentration 1000.0 nM
[28] = test system: Tyrosine-protein kinase ABL1 (Homo sapiens), P00519 [T315I]; conditions: Compound concentration 1000.0 nM
[29] = target: Calcium/calmodulin-dependent protein kinase kinase 1 (Homo sapiens) (UniProt Q8N5S9); conditions: Compound concentration 1000.0 nM
[30] = target: Cyclin-dependent kinase 2 (Homo sapiens) (UniProt P24941); conditions: Compound concentration 1000.0 nM
[31] = target: Epidermal growth factor receptor (Homo sapiens) (UniProt P00533); conditions: Compound concentration 1000.0 nM
[32] = test system: ALK tyrosine kinase receptor (Homo sapiens), Q9UM73 [C1156Y]; conditions: Compound concentration 1000.0 nM
[33] = test system: Mast/stem cell growth factor receptor Kit (Homo sapiens), P10721 [V559D,V654A]; conditions: Compound concentration 1000.0 nM
[34] = target: Testis-specific serine/threonine-protein kinase 1 (Homo sapiens) (UniProt Q9BXA7); conditions: Compound concentration 1000.0 nM
Chain of Testis-specific serine/threonine-protein kinase 1 (Homo sapiens) (Q9BXA7 whole entry): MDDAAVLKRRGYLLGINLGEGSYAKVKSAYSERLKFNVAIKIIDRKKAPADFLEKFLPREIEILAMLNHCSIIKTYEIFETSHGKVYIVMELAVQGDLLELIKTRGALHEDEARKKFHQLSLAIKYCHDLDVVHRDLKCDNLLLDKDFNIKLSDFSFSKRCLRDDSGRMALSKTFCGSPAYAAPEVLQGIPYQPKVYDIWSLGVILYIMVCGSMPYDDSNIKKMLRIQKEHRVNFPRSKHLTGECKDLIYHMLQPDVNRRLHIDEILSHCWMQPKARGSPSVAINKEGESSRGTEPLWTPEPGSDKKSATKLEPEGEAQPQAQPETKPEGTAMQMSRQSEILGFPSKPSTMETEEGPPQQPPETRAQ

[35] = target: Serine/threonine-protein kinase Sgk2 (Homo sapiens) (UniProt Q9HBY8); conditions: Compound concentration 1000.0 nM
Chain of Serine/threonine-protein kinase Sgk2 (Homo sapiens) (Q9HBY8 whole entry): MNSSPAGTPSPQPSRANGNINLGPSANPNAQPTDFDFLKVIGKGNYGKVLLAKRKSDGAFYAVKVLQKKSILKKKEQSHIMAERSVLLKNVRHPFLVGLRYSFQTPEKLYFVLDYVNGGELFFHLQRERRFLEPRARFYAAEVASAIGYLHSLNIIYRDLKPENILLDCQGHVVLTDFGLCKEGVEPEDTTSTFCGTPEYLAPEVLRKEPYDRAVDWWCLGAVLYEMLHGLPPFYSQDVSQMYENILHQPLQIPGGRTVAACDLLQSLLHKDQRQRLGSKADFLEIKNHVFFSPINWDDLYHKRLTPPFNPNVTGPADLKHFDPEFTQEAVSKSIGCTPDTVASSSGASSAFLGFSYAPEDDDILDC

[36] = target: Myotonin-protein kinase (Homo sapiens) (UniProt Q09013); conditions: Compound concentration 1000.0 nM
[37] = target: Alpha-2B adrenergic receptor (Homo sapiens) (UniProt P18089); conditions: Compound concentration 10.0 uM
[38] = target: Eukaryotic translation initiation factor 2-alpha kinase 1 (Homo sapiens) (UniProt Q9BQI3); conditions: Compound concentration 1000.0 nM
[39] = target: Dual specificity protein kinase CLK4 (Homo sapiens) (UniProt Q9HAZ1); conditions: Compound concentration 1000.0 nM
[40] = target: Hepatocyte growth factor receptor (Homo sapiens) (UniProt P08581); conditions: Compound concentration 1000.0 nM
[41] = target: MAP kinase-interacting serine/threonine-protein kinase 2 (Homo sapiens) (UniProt Q9HBH9); conditions: Compound concentration 1000.0 nM
Chain of MAP kinase-interacting serine/threonine-protein kinase 2 (Homo sapiens) (Q9HBH9 whole entry, looked up): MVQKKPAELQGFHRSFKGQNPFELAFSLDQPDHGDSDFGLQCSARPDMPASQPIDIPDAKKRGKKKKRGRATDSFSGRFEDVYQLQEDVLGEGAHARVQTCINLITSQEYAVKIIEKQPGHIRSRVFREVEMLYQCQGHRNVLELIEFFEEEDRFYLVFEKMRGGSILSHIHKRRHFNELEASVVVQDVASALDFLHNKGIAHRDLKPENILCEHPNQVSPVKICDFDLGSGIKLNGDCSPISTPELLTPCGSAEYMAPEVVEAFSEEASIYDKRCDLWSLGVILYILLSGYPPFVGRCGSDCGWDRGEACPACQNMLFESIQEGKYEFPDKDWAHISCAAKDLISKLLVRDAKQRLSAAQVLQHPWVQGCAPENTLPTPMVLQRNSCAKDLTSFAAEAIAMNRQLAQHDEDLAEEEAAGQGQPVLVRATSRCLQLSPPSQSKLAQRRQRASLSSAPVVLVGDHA

[42] = target: cAMP-dependent protein kinase catalytic subunit alpha (Homo sapiens) (UniProt P17612); conditions: Compound concentration 1000.0 nM
[43] = target: Beta-2 adrenergic receptor (Homo sapiens) (UniProt P07550); conditions: Compound concentration 10.0 uM
[44] = target: Dual specificity mitogen-activated protein kinase kinase 7 (Homo sapiens) (UniProt O14733); conditions: Compound concentration 1000.0 nM
[45] = target: Serine/threonine-protein kinase/endoribonuclease IRE1 (Homo sapiens) (UniProt O75460); conditions: Compound concentration 1000.0 nM

## COc1ccc2c(O[C@@H]3C[C@H]4C(=O)N[C@]5(C(=O)O)CC5/C=C\CCCCC[C@H](NC(=O)OC5CCCC5)C(=O)N4C3)cc(-c3csc(NC(=O)C(C)C)n3)nc2c1C (some centres not stated) [BI 1230]
[1]
  inhibition: 10.2%
[2]
  residual activity: 100%
[3]
  residual activity: 100%
[4]
  residual activity: 71%
[5]
  inhibition: 46.3%
[6]
  residual activity: 57%
[7]
  residual activity: 100%
[8]
  residual activity: 100%
[9]
  residual activity: 94%
[10]
  inhibition: 0.21%
[11]
  residual activity: 77%
[12]
  residual activity: 80%
[13]
  residual activity: 97%
[14]
  residual activity: 83%
[15]
  residual activity: 100%
[16]
  residual activity: 90%
[17]
  residual activity: 91%
[18]
  residual activity: 100%
NS3 protease
  IC50: 6.7 nM (active)
[19]
  inhibition: 24.6%
[20]
  residual activity: 54%
[21]
  residual activity: 100%
[22]
  residual activity: 95%
[23]
  residual activity: 84%
[24]
  residual activity: 99%
[25]
  residual activity: 97%
[26]
  residual activity: 91%
[27]
  residual activity: 100%
[28]
  residual activity: 92%
[29]
  residual activity: 100%
[30]
  residual activity: 99%
[31]
  residual activity: 92%
[32]
  residual activity: 100%
[33]
  residual activity: 74%
[34]
  residual activity: 70%
[35]
  residual activity: 87%
[36]
  residual activity: 83%
[37]
  inhibition: 60.3%
[38]
  residual activity: 96%
[39]
  residual activity: 100%
[40]
  residual activity: 99%
[41]
  residual activity: 70%
[42]
  residual activity: 97%
[43]
  inhibition: 24.6%
[44]
  residual activity: 81%
[45]
  residual activity: 79%

## O=C(N[C@H]1CCCCC/C=C\C2C[C@@]2(C(=O)O)NC(=O)[C@@H]2C[C@@H](Oc3ccncc3)CN2C1=O)OC1CCCC1 (some centres not stated) [BI 1675]
[1]
  inhibition: 9.48%
[2]
  residual activity: 100%
[3]
  residual activity: 100%
[4]
  residual activity: 81%
[5]
  inhibition: -4.18%
[6]
  residual activity: 66%
[7]
  residual activity: 93%
[8]
  residual activity: 100%
[9]
  residual activity: 100%
[10]
  inhibition: -5.57%
[11]
  residual activity: 90%
[12]
  residual activity: 100%
[13]
  residual activity: 72%
[14]
  residual activity: 90%
[15]
  residual activity: 92%
[16]
  residual activity: 63%
[17]
  residual activity: 100%
[18]
  residual activity: 99%
NS3 protease
  IC50: 4870 nM (not active)
[19]
  inhibition: 9.26%
[20]
  residual activity: 89%
[21]
  residual activity: 100%
[22]
  residual activity: 100%
[23]
  residual activity: 100%
[24]
  residual activity: 100%
[25]
  residual activity: 100%
[26]
  residual activity: 100%
[27]
  residual activity: 100%
[28]
  residual activity: 100%
[29]
  residual activity: 96%
[30]
  residual activity: 87%
[31]
  residual activity: 99%
[32]
  residual activity: 100%
[33]
  residual activity: 63%
[34]
  residual activity: 77%
[35]
  residual activity: 100%
[36]
  residual activity: 89%
[37]
  inhibition: 8.15%
[38]
  residual activity: 100%
[39]
  residual activity: 93%
[40]
  residual activity: 60%
[41]
  residual activity: 75%
[42]
  residual activity: 92%
[43]
  inhibition: 12.8%
[44]
  residual activity: 91%
[45]
  residual activity: 80%
